In ChEMBL document CHEMBL1147817, “Two novel furan derivatives from Phellinus linteus with anti-complement activity” (Bioorg Med Chem Lett, 2006):

Test: Inhibition of classical pathway of the complement system
Assay type: functional, Homo sapiens

Structure (SMILES)	IC50 [µM]
CO[C@H]1O[C@@H](C(O)CO)/C(=C/c2ccc(CO)o2)C1=O (stereo partly drawn) [PHELLINUSFURAN A]	33.6
CO[C@H]1O[C@H](C(O)CO)/C(=C/c2ccc(CO)o2)C1=O (stereo partly drawn) [PHELLINUSFURAN B]	33.7
O=C(/C=C/c1ccc(O)c(O)c1)O[C@H](Cc1ccc(O)c(O)c1)C(=O)O [ROSMARINIC ACID]	180
